Laboratory results as given in patent US10934298B2, “Substituted pyrazolo[1,5-a]pyrimidines for the treatment of medical disorders” (BIAL—BioTech Investments, Inc., priority 2016, dated 2021).

Molecular target: T1, glucocerebrosidase (Gcase) (Homo sapiens, UniProt P04062)
T1 construct: micellar solution containing 10 nM GCase and 100 nM saposin C
T1 sequence (P04062 40-536): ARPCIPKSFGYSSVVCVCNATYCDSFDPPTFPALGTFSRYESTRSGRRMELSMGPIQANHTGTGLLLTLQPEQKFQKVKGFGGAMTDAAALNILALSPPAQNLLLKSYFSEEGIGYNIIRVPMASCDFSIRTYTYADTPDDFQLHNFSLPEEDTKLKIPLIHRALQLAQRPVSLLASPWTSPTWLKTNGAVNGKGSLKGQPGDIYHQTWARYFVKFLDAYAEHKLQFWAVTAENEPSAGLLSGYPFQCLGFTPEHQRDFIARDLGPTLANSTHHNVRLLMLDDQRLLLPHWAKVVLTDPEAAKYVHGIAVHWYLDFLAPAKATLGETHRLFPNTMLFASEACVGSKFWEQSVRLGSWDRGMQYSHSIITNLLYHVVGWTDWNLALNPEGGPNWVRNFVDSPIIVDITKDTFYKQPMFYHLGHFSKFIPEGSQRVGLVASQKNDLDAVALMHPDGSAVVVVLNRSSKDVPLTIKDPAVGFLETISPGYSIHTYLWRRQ
Assay: Glucocerebrosidase (Gcase) activation assay with 4-methylumbelliferyl-beta-D-glucopyranoside substrate, saposin C and phosphatidylserine/triton micelles, fluorescence readout
Assay type: biochemical
Experimental: The ability of exemplary compounds to activate glucocerebrosidase (Gcase) was measured.
A 484 μL aliquot of a 1.0 mg/mL solution of phosphatidylserine (PS) (Sigma P7769) in chloroform was evaporated under a stream of nitrogen for 1 hour. The lipid film was dissolved over 4 minutes of vigorous vortexing in 40 mL of 176 mM K2HPO4/50 mM citric acid (pH 4.7) containing 7.5 μL of triton X-100, resulting in a mixed micellar preparation with a composition of 0.32 mM triton and 0.37 mol % PS. 4-Methylumbelliferyl-beta-D-glucopyranoside (ACROS-337025000) was dissolved in the micellar solution to a final concentration of 2 mM for use as the reaction substrate.
Test compounds were diluted to the desired concentrations with dimethylsulfoxide (DMSO) from 10 mM stocks, and 0.41 μL of the DMSO compound mixture was added to 100 μL of micellar solution containing 10 nM GCase and 100 nM saposin C (Enzo ALX-201-262-C050). Pre-incubation was allowed to occur for 30 minutes at room temperature, after which the reaction was initiated by combining 25 μL of substrate solution with 25 μL of compound/GCase/saposin mixture. The reaction proceeded for 15 minutes at room temperature and was stopped by adding 150 μL of 1M glycine, pH 12.5. The endpoint of the reaction was monitored by measuring fluorescence intensity (excitation: 365 nm; emission: 440 nm) on a SpectraMax i3 instrument (Molecular Devices). Test compounds were screened at 1.0 and 0.1 μM final concentration, and subsequent 8-point dose response curves were obtained using 3-fold dilutions from a maximum final concentration of 5 μM.

COc1c(F)cccc1-c1cc(C)n2ncc(C(=O)NC(C3CC3)C(F)(F)F)c2n1 (centres unmarked) [III-139]
Percent Gcase Activation, 0.1 μM Test Compound (test compound at 0.1 μM): ** (Gcase activation in the range of 10% up to 20%) | Percent Gcase Activation, 1 μM Test Compound (test compound at 1.0 μM): +++ (Gcase activation greater than 60%)

Cc1cc(-c2cncc(C(F)(F)F)c2)nc2c(C(=O)N[C@@H](C)C(F)(F)F)cnn12 [III-287]
Percent Gcase Activation, 0.1 μM Test Compound (0.1 μM test compound): *** (greater than 20% Gcase activation) | Percent Gcase Activation, 1 μM Test Compound (1 μM test compound): +++ (Gcase activation greater than 60%)

Cc1cc(-c2cncc(F)c2)nc2c(C(=O)NC(C3CC3)C(F)(F)F)cnn12 (centres unmarked) [III-125]
Percent Gcase Activation, 0.1 μM Test Compound (test compound at 0.1 μM): *** (greater than 20% Gcase activation) | Percent Gcase Activation, 1 μM Test Compound (test compound at 1.0 μM): +++ (Gcase activation greater than 60%)

Cc1cc(-c2cncc(Cl)c2)nc2c(C(=O)N[C@H](C)C(F)(F)F)cnn12 [III-201]
Percent Gcase Activation, 0.1 μM Test Compound (test compound at 0.1 μM): *** (greater than 20% Gcase activation) | Percent Gcase Activation, 1 μM Test Compound (test compound at 1.0 μM): +++ (Gcase activation greater than 60%)

COc1ccc(-c2cc(C)n3ncc(C(=O)NC(C4CC4)C(F)(F)F)c3n2)cn1 (centres unmarked) [III-268]
Percent Gcase Activation, 0.1 μM Test Compound (test compound at 0.1 μM): *** (greater than 20% Gcase activation) | Percent Gcase Activation, 1 μM Test Compound (test compound at 1.0 μM): +++ (Gcase activation greater than 60%)

COc1c(F)cccc1-c1cc(C)n2ncc(C(=O)NC(C)C(F)(F)F)c2n1 (centres unmarked) [III-140]
Percent Gcase Activation, 0.1 μM Test Compound (test compound at 0.1 μM): ** (Gcase activation in the range of 10% up to 20%) | Percent Gcase Activation, 1 μM Test Compound (test compound at 1.0 μM): +++ (Gcase activation greater than 60%)

Cc1cncc(-c2cc(C)n3ncc(C(=O)N[C@H](C4CC4)C(F)(F)F)c3n2)c1 [III-276]
Percent Gcase Activation, 0.1 μM Test Compound (test compound at 0.1 μM): *** (greater than 20% Gcase activation) | Percent Gcase Activation, 1 μM Test Compound (test compound at 1.0 μM): +++ (Gcase activation greater than 60%)

Cc1ncccc1-c1cc(C)n2ncc(C(=O)N[C@H](C3CC3)C(F)(F)F)c2n1 [III-376]
Percent Gcase Activation, 0.1 μM Test Compound (0.1 μM test compound): * (less than 10% Gcase activation) | Percent Gcase Activation, 1 μM Test Compound (1 μM test compound): + (less than 30% Gcase activation)

Cc1cc(-c2cc(C)n3ncc(C(=O)N[C@@H](C)C(F)(F)F)c3n2)co1 [III-339]
Percent Gcase Activation, 0.1 μM Test Compound (0.1 μM test compound): *** (greater than 20% Gcase activation) | Percent Gcase Activation, 1 μM Test Compound (1 μM test compound): +++ (Gcase activation greater than 60%)

Cc1sncc1-c1cc(C)n2ncc(C(=O)N[C@@H](C3CC3)C(F)(F)F)c2n1 [III-388]
Percent Gcase Activation, 0.1 μM Test Compound (0.1 μM test compound): *** (greater than 20% Gcase activation) | Percent Gcase Activation, 1 μM Test Compound (1 μM test compound): +++ (Gcase activation greater than 60%)

Cc1nc(-c2cc(C)n3ncc(C(=O)N[C@H](C4CC4)C(F)(F)F)c3n2)c(C)o1 [III-333]
Percent Gcase Activation, 0.1 μM Test Compound (0.1 μM test compound): *** (greater than 20% Gcase activation) | Percent Gcase Activation, 1 μM Test Compound (1 μM test compound): +++ (Gcase activation greater than 60%)

COc1ccc(F)c(-c2cc(C)n3ncc(C(=O)NC(C)C(F)(F)F)c3n2)c1 (centres unmarked) [III-409]
Percent Gcase Activation, 0.1 μM Test Compound (0.1 μM test compound): *** (greater than 20% Gcase activation) | Percent Gcase Activation, 1 μM Test Compound (1 μM test compound): +++ (Gcase activation greater than 60%)

Cc1cc(N2CCCC(F)(F)C2)nc2c(C(=O)N[C@@H](C3CC3)C(F)(F)F)cnn12 [III-95]
Percent Gcase Activation, 0.1 μM Test Compound (test compound at 0.1 μM): *** (greater than 20% Gcase activation) | Percent Gcase Activation, 1 μM Test Compound (test compound at 1.0 μM): +++ (Gcase activation greater than 60%)

Cc1conc1-c1cc(C)n2ncc(C(=O)N[C@H](C3CC3)C(F)(F)F)c2n1 [III-342]
Percent Gcase Activation, 0.1 μM Test Compound (0.1 μM test compound): *** (greater than 20% Gcase activation) | Percent Gcase Activation, 1 μM Test Compound (1 μM test compound): +++ (Gcase activation greater than 60%)

Cc1cc(N2CCN(C(C)C)C2=O)nc2c(C(=O)N[C@H](C3CC3)C(F)(F)F)cnn12 [III-327]
Percent Gcase Activation, 0.1 μM Test Compound (0.1 μM test compound): ** (Gcase activation in the range of 10% up to 20%) | Percent Gcase Activation, 1 μM Test Compound (1 μM test compound): +++ (Gcase activation greater than 60%)

Cc1cc(-c2ccc(F)cn2)nc2c(C(=O)NC(C3CC3)C(F)(F)F)cnn12 (centres unmarked) [III-204]
Percent Gcase Activation, 0.1 μM Test Compound (test compound at 0.1 μM): *** (greater than 20% Gcase activation) | Percent Gcase Activation, 1 μM Test Compound (test compound at 1.0 μM): +++ (Gcase activation greater than 60%)

Cc1cc(-c2ncccc2Cl)nc2c(C(=O)NC(C3CC3)C(F)(F)F)cnn12 (centres unmarked) [III-206]
Percent Gcase Activation, 0.1 μM Test Compound (test compound at 0.1 μM): *** (greater than 20% Gcase activation) | Percent Gcase Activation, 1 μM Test Compound (test compound at 1.0 μM): +++ (Gcase activation greater than 60%)

Cc1cc(N2CCCN(C(C)C)C2=O)nc2c(C(=O)NC(C)(C)C3CC3)cnn12 [III-261]
Percent Gcase Activation, 0.1 μM Test Compound (test compound at 0.1 μM): * (less than 10% Gcase activation) | Percent Gcase Activation, 1 μM Test Compound (test compound at 1.0 μM): + (less than 30% Gcase activation)

COc1c(C#N)cccc1-c1cc(C)n2ncc(C(=O)N[C@@H](C)C3CC3)c2n1 [III-143]
Percent Gcase Activation, 0.1 μM Test Compound (test compound at 0.1 μM): * (less than 10% Gcase activation) | Percent Gcase Activation, 1 μM Test Compound (test compound at 1.0 μM): + (less than 30% Gcase activation)

Cc1ccc(-c2cc(C)n3ncc(C(=O)N[C@H](C4CC4)C(F)(F)F)c3n2)c(F)n1 [III-372]
Percent Gcase Activation, 0.1 μM Test Compound (0.1 μM test compound): *** (greater than 20% Gcase activation) | Percent Gcase Activation, 1 μM Test Compound (1 μM test compound): +++ (Gcase activation greater than 60%)

Cc1cc(-c2cccc(-c3ncccn3)n2)nc2c(C(=O)NC(C3CC3)C(F)(F)F)cnn12 (centres unmarked) [III-175]
Percent Gcase Activation, 0.1 μM Test Compound (test compound at 0.1 μM): * (less than 10% Gcase activation) | Percent Gcase Activation, 1 μM Test Compound (test compound at 1.0 μM): + (less than 30% Gcase activation)

Cc1cc(-c2cncc(Cl)c2)nc2c(C(=O)N[C@@H](C)C3CC3)cnn12 [III-290]
Percent Gcase Activation, 0.1 μM Test Compound (0.1 μM test compound): *** (greater than 20% Gcase activation) | Percent Gcase Activation, 1 μM Test Compound (1 μM test compound): +++ (Gcase activation greater than 60%)

Cc1cc(C#N)c(-c2cc(C)n3ncc(C(=O)NC(C4CC4)C(F)(F)F)c3n2)o1 (centres unmarked) [III-245]
Percent Gcase Activation, 0.1 μM Test Compound (test compound at 0.1 μM): * (less than 10% Gcase activation) | Percent Gcase Activation, 1 μM Test Compound (test compound at 1.0 μM): + (less than 30% Gcase activation)

Cc1cc(C)n2ncc(C(=O)NC(c3ccc(F)cc3)C(F)(F)F)c2n1 (centres unmarked) [III-184]
Percent Gcase Activation, 0.1 μM Test Compound (test compound at 0.1 μM): *** (greater than 20% Gcase activation) | Percent Gcase Activation, 1 μM Test Compound (test compound at 1.0 μM): +++ (Gcase activation greater than 60%)

Cc1nc(-c2cc(C)n3ncc(C(=O)NC(C4CC4)C(F)(F)F)c3n2)co1 (centres unmarked) [III-249]
Percent Gcase Activation, 0.1 μM Test Compound (test compound at 0.1 μM): ** (Gcase activation in the range of 10% up to 20%) | Percent Gcase Activation, 1 μM Test Compound (test compound at 1.0 μM): +++ (Gcase activation greater than 60%)

Cc1cc(-c2cccc(Oc3ncccn3)c2)nc2c(C(=O)NC(C3CC3)C(F)(F)F)cnn12 (centres unmarked) [III-103]
Percent Gcase Activation, 0.1 μM Test Compound (test compound at 0.1 μM): * (less than 10% Gcase activation) | Percent Gcase Activation, 1 μM Test Compound (test compound at 1.0 μM): +++ (Gcase activation greater than 60%)

Cc1cc(-c2ccc(F)cc2)nc2c(C(=O)N[C@H](C)C(F)(F)F)cnn12 [III-359]
Percent Gcase Activation, 0.1 μM Test Compound (0.1 μM test compound): ** (Gcase activation in the range of 10% up to 20%) | Percent Gcase Activation, 1 μM Test Compound (1 μM test compound): +++ (Gcase activation greater than 60%)

Cc1cc(-c2cccc(Cl)n2)nc2c(C(=O)N[C@H](C)C(F)(F)F)cnn12 [III-235]
Percent Gcase Activation, 0.1 μM Test Compound (test compound at 0.1 μM): ** (Gcase activation in the range of 10% up to 20%) | Percent Gcase Activation, 1 μM Test Compound (test compound at 1.0 μM): +++ (Gcase activation greater than 60%)

Cc1cc(N2CC(C(C)C)OC2=O)nc2c(C(=O)N[C@@H](C3CC3)C(F)(F)F)cnn12 (some centres unmarked) [III-318]
Percent Gcase Activation, 0.1 μM Test Compound (0.1 μM test compound): ** (Gcase activation in the range of 10% up to 20%) | Percent Gcase Activation, 1 μM Test Compound (1 μM test compound): +++ (Gcase activation greater than 60%)

Cc1cc(-c2cccnc2)nc2c(C(=O)N[C@H](C3CC3)C(F)(F)F)cnn12 [III-88]
Percent Gcase Activation, 0.1 μM Test Compound (test compound at 0.1 μM): *** (greater than 20% Gcase activation) | Percent Gcase Activation, 1 μM Test Compound (test compound at 1.0 μM): +++ (Gcase activation greater than 60%)

Cc1cc(-c2cccc(C#N)n2)nc2c(C(=O)NC(C3CC3)C(F)(F)F)cnn12 (centres unmarked) [III-133]
Percent Gcase Activation, 0.1 μM Test Compound (test compound at 0.1 μM): ** (Gcase activation in the range of 10% up to 20%) | Percent Gcase Activation, 1 μM Test Compound (test compound at 1.0 μM): +++ (Gcase activation greater than 60%)

Cc1cc(-c2cccc(F)n2)nc2c(C(=O)N[C@@H](C)C3CC3)cnn12 [III-134]
Percent Gcase Activation, 0.1 μM Test Compound (test compound at 0.1 μM): ** (Gcase activation in the range of 10% up to 20%) | Percent Gcase Activation, 1 μM Test Compound (test compound at 1.0 μM): +++ (Gcase activation greater than 60%)

Cc1cc(-c2ccncc2)n2ncc(C(=O)NC(C)(C)C3CC3)c2n1 [III-21]
Percent Gcase Activation, 0.1 μM Test Compound (0.1 μM test compound, Table 3A): * (less than 10% Gcase activation) | Percent Gcase Activation, 1 μM Test Compound (1 μM test compound, Table 3A): + (less than 30% Gcase activation)

COc1cc(F)ccc1-c1cc(C)n2ncc(C(=O)N[C@@H](C)C3CC3)c2n1 [III-146]
Percent Gcase Activation, 0.1 μM Test Compound (test compound at 0.1 μM): *** (greater than 20% Gcase activation) | Percent Gcase Activation, 1 μM Test Compound (test compound at 1.0 μM): +++ (Gcase activation greater than 60%)
